From patent US20110306597A1, “Nicotinamide Derivatives” (priority 2008, published 2011)

Target: human recombinant H-PGDS (Homo sapiens, UniProt O60760)
Assay: Fluorescence Intensity h-PGDS TBA Enzyme Assay
Format: biochemical
Settings: 1:175,000 human recombinant H-PGDS, highest inhibitor concentration typically 1 μM
Method in brief: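 Readout is PGH2 depletion: after a 42 s reaction with 5.0 μM PGH2 and 2.5 mM glutathione (pH 8.0 Tris, 10 min inhibitor preincubation), Fe(II) converts leftover PGH2 to MDA, which forms a fluorescent TBA complex. IC50s come from 11-point, 3-fold duplicate curves, 4-parameter fit.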

human recombinant H-PGDS, sequence (O60760 whole entry): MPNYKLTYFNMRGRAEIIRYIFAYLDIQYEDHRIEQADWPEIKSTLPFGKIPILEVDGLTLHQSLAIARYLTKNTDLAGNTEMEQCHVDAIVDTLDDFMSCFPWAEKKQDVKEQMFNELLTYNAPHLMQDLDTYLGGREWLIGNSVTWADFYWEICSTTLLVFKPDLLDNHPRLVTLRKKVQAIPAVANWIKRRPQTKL

| Molecule | IC50 [µM] |
| --- | --- |
| O=C(N[C@@H](CO)c1ccccc1)c1ccc(-c2cccc(F)c2)nc1 [Example 78, 6-(3-Fluorophenyl)-N-[(1R)-2-hydroxy-1-phenylethyl] nicotinamide] | 0.045 |
| O=C(NCc1nnc(Cc2ccccc2)o1)c1ccc(-c2cccc(F)c2)nc1 [Example 57, N-[(5-Benzyl-1,3,4-oxadiazol-2-yl)methyl]-6-(3-fluorophenyl)nicotinamide] | 0.0328 |
| COc1ccc(C(N)CC(=O)NC(=O)c2ccc(-c3cccc(C)c3)nc2)cc1OC (centres unmarked) [Example 452, N-[3-Amino-3-(3,4-dimethoxyphenyl)propanoyl]-6-(3-methylphenyl) nicotinamide] | 0.0236 |
| CSc1ccc(CNC(=O)c2ccc(-c3cccc(C)c3)nc2)cc1 [Example 453, 6-(3-Methylphenyl)-N-[4-(methylthio)benzyl]nicotinamide] | 0.102 |
| O=C(NCCN1CCCC1=O)c1ccc(-c2ccccc2)nc1 [Example 351, N-[2-(2-Oxopyrrolidin-1-yl)ethyl]-6-phenylnicotinamide] | 0.0254 |
| O=C(NCc1ccc(C(F)(F)F)cc1)c1ccc(-c2ccccc2)nc1 [Example 385, 6-Phenyl-N-[4-(trifluoromethyl)benzyl] nicotinamide] | 0.0427 |
| O=C(NCC1CCCN(c2ncc3c(n2)CCOC3)C1)c1ccc(-c2cccc(F)c2)nc1 (centres unmarked) [Example 84, N-{[1-(7,8-Dihydro-5H-pyrano[4,3-d]pyrimidin-2-yl)piperidin-3-yl]methyl}-6-(3-fluorophenyl)nicotinamide] | 0.0138 |
| O=C(NCC1(O)CCCC1)c1ccc(-c2cccc(F)c2)nc1 [Example 140, 6-(3-Fluorophenyl)-N-[(1-hydroxycyclopentyl)methyl] nicotinamide] | 0.032 |
| COc1ccccc1-c1nnc(CCNC(=O)c2ccc(-c3cccc(F)c3)nc2)o1 [Example 16, 6-(3-Fluorophenyl)-N-{2-[5-(2-methoxyphenyl)-1,3,4-oxadiazol-2-yl]ethyl}nicotinamide] | 0.0041 |
| Cc1c(C(C)NC(=O)c2ccc(-c3cccc(F)c3)nc2)cnn1C (centres unmarked) [Example 125, N-[1-(1,5-Dimethyl-1H-pyrazol-4-yl)ethyl]-6-(3-fluorophenyl)nicotinamide] | 0.0239 |
| CCOC(=O)CC[C@H](NC(=O)c1ccc(-c2ccccc2)nc1)C(=O)OCC [Example 396, Diethyl N-[(6-phenylpyridin-3-yl)carbonyl]-L-glutamate] | 0.003 |
| O=C(NCCN1CCCCC1)c1ccc(-c2cccc(F)c2)nc1 [Example 195, 6-(3-Fluorophenyl)-N-(2-piperidin-1-ylethyl)nicotinamide] | 0.0121 |
| Cc1cccc(-c2ccc(C(=O)NC3CCOCC3)cn2)c1 [Example 252, 6-(3-Methylphenyl)-N-(tetrahydro-2H-pyran-4-yl)nicotinamide] | 0.0129 |
| O=C(NCCc1ccc(O)cc1)c1ccc(-c2cccc(F)c2)nc1 [Example 446, 6-(3-Fluorophenyl)-N-[2-(4-hydroxyphenyl)ethyl] nicotinamide] | 0.00533 |
| O=C(NCCCCNC(=O)c1ccc(-c2cccc(F)c2)nc1)OCc1ccccc1 [Example 214, Benzyl [4-({[6-(3-fluorophenyl)pyridin-3-yl]carbonyl}amino)butyl] carbamate] | 0.0207 |
| CC(=O)N1CCC(CNC(=O)c2ccc(-c3ccccc3)nc2)CC1 [Example 387, N-[(1-Acetylpiperidin-4-yl)methyl]-6-phenylnicotinamide] | 0.0209 |
| O=C(NCC1CC2(CCN(Cc3cc[nH]n3)CC2)CO1)c1ccc(-c2cccc(F)c2)nc1 (centres unmarked) [Example 51, 6-(3-Fluorophenyl)-N-{[8-(1H-pyrazol-3-ylmethyl)-2-oxa-8-azaspiro[4.5]dec-3-yl]methyl}nicotinamide] | 0.0254 |
| COCCCn1cnnc1CNC(=O)c1ccc(-c2cccc(F)c2)nc1 [Example 17, 6-(3-Fluorophenyl)-N-{[4-(3-methoxypropyl)-4H-1,2,4-triazol-3-yl]methyl}nicotinamide] | 0.112 |
| 6-(3-Fluorophenyl)-N-{[1- (2-methoxyethyl)piperidin- 3-yl]methyl}nicotinamide [Example 438] | 0.374 |
| CN(C)C(=O)CNC(=O)c1ccc(-c2ccc(F)cc2)nc1 [Example 325, N-[2-(Dimethylamino)-2-oxoethyl]-6-(4-fluorophenyl)nicotinamide] | ≥ 1 |
| CC(C)N1CCC(CNC(=O)c2ccc(-c3cccc(F)c3)nc2)C1 (centres unmarked) [Example 12, 6-(3-Fluorophenyl)-N-[(1-isopropylpyrrolidin-3-yl)methyl]nicotinamide] | 0.117 |
| COc1ccc2nc(CNC(=O)c3ccc(-c4cccc(F)c4)nc3)[nH]c2c1 [Example 441, 6-(3-Fluorophenyl)-N-[(6-methoxy-1H-benzimidazol-2-yl)methyl]nicotinamide] | 0.0452 |
| O=C(NC[C@H]1COc2ccccc2C1)c1ccc(-c2cccc(F)c2)nc1 [Example 573] | 0.00324 |
| CNS(=O)(=O)c1ccc(CNC(=O)c2ccc(-c3cc(F)cc(F)c3)nc2)cc1 [Example 571, 6-(3,5-Difluorophenyl)-N-{4-[(methylamino)sulfonyl]benzyl}nicotinamide] | 0.0621 |

| Molecule | IC50 [µM] |
| --- | --- |
| O=C(Nc1cccnc1)c1ccc(-c2cccc(F)c2)nc1 [Example 419, 6-(3-Fluorophenyl)-N-pyridin-3-ylnicotinamide] | 0.00394 |
| NS(=O)(=O)c1ccc(CNC(=O)c2ccc(-c3ccc(F)cc3)nc2)cc1 [Example 460, N-[4-(Aminosulfonyl)benzyl]-6-(4-fluorophenyl) nicotinamide] | ≥ 1 |
| O=C(Nc1ccccc1)c1ccc(-c2cccc(F)c2)nc1 [Example 421, 6-(3-Fluorophenyl)-N-phenylnicotinamide] | 0.00737 |
| COc1cccc(-c2ccc(C(=O)NCc3ccc(S(C)(=O)=O)cc3)cn2)c1 [Example 316, 6-(3-Methoxyphenyl)-N-[4-(methylsulfonyl)benzyl] nicotinamide] | 0.382 |
| Cc1cccc(NC(=O)c2ccc(-c3ccccc3)nc2)c1 [Example 392, N-(3-Methylphenyl)-6-phenylnicotinamide] | 0.00112 |
| COc1ccc(CNC(=O)c2ccc(-c3ccc(F)cc3)nc2)cc1OC [Example 461, N-(3,4-Dimethoxybenzyl)-6-(4-fluorophenyl) nicotinamide] | 0.0915 |
| CCc1nccn1CCCNC(=O)c1ccc(-c2cccc(F)c2)nc1 [Example 86, N-[3-(2-Ethyl-1H-imidazol-1-yl)propyl]-6-(3-fluorophenyl)nicotinamide] | 0.0148 |
| COCCN1C(=O)CCC1CCNC(=O)c1ccc(-c2cccc(F)c2)nc1 (centres unmarked) [Example 46, 6-(3-Fluorophenyl)-N-{2-[1-(2-methoxyethyl)-5-oxopyrrolidin-2-yl]ethyl}nicotinamide] | 0.0173 |
| O=C(NC1CCN(Cc2ccc(Cl)c(Cl)c2)C1=O)c1ccc(-c2ccccc2)nc1 (centres unmarked) [Example 383, N-[1-(3,4-Dichlorobenzyl)-2-oxopyrrolidin-3-yl]-6-phenylnicotinamide] | 0.0165 |
| COc1ccc(C(CNC(=O)c2ccc(-c3cccc(F)c3)nc2)N(C)C)cc1 (centres unmarked) [Example 204, N-[2-(Dimethylamino)-2-(4-methoxyphenyl)ethyl]-6-(3-fluorophenyl)nicotinamide] | 0.125 |
| O=C(NCc1cccc(F)c1)c1ccc(-c2ccccc2)nc1 [Example 346, N-(3-Fluorobenzyl)-6-phenylnicotinamide] | 0.00407 |
| COC(=O)CNC(=O)[C@H](C)NC(=O)c1ccc(-c2ccccc2)nc1 [Example 348, Methyl N-[(6-phenylpyridin-3-yl)carbonyl]-L-alanylglycinate] | 0.0246 |
| COC(C)(C)CNC(=O)c1ccc(-c2cccc(F)c2)nc1 [Example 194, 6-(3-Fluorophenyl)-N-(2-methoxy-2-methylpropyl)nicotinamide] | 0.376 |
| COC(=O)CNC(=O)[C@H](C)NC(=O)c1ccc(-c2ccc(F)cc2)nc1 [Example 263, Methyl N-{[6-(4-fluorophenyl)pyridin-3-yl]carbonyl}-L-alanylglycinate] | 0.825 |
| O=C(NCc1ccc(Br)cc1)c1ccc(-c2ccc(F)cc2)nc1 [Example 505, N-(4-Bromobenzyl)-6-(4-fluorophenyl)nicotinamide] | ≥ 1 |
| CC(C)OCCCNC(=O)c1ccc(-c2cccc(F)c2)nc1 [Example 37, 6-(3-Fluorophenyl)-N-(3-isopropoxypropyl) nicotinamide] | 0.0158 |
| O=C(NCc1nc2cc(F)ccc2[nH]1)c1ccc(-c2cccc(F)c2)nc1 [Example 146, N-[(5-Fluoro-1H-benzimidazol-2-yl)methyl]-6-(3-fluorophenyl)nicotinamide] | 0.034 |
| O=C(NCCN1CCOCC1)c1ccc(-c2cccc(F)c2)nc1 [Example 169, 6-(3-Fluorophenyl)-N-(2-morpholin-4-ylethyl)nicotinamide] | 0.0435 |
| COc1cc(F)cc(-c2ccc(C(=O)NCC3CCN(C(C)=O)CC3)cn2)c1 [Example 558, N-[(1-Acetylpiperidin-4-yl)methyl]-6-(3-fluoro-5-methoxyphenyl)nicotinamide] | 0.119 |
| O=C(NCc1nnc(-c2cccnc2)[nH]1)c1ccc(-c2ccccc2)nc1 [Example 514, 6-Phenyl-N-[(5-pyridin-3-yl-4H-1,2,4-triazol-3-yl)methyl]nicotinamide] | 0.0052 |
| Cc1ccc(CNC(=O)c2ccc(-c3cccc(C)c3)nc2)cc1 [Example 251, N-(4-Methylbenzyl)-6-(3-methylphenyl)nicotinamide] | 0.105 |
| Cc1cc(CNC(=O)c2ccc(-c3cccc(F)c3)nc2)c(C(F)(F)F)o1 [Example 203, 6-(3-Fluorophenyl)-N-{[5-methyl-2-(trifluoromethyl)-3-furyl]methyl}nicotinamide] | 0.15 |
| CC(C)[C@H](N)C(=O)NC(=O)c1ccc(-c2cccc(F)c2)nc1 [Example 526, 6-(3-Fluorophenyl)-N-L-valylnicotinamide] | 1.51 |
